Test results taken from patent publication US20110312941A1, “1,4-DISUBSTITUTED PIPERIDINES AS VASOPRESSIN RECEPTOR VIA ANTAGONISTS” (VANTIA LIMITED, priority 2009, published 2011).

Legend:
[1] = target: T1, cloned human V1a receptor (Homo sapiens, UniProt P37288); assay: in vitro functional calcium mobilisation assay (FLIPR), antagonist activity, 1321N1 cells, 250 pM AVP; format: cell-based; conditions: functional pKi derived from pIC50 (Equation 1), FLIPR Ca2+ mobilisation, 1321N1 cells expressing cloned human V1a receptor; for Ki: read-out: Mean fpKi (Human V1a) (converted)
T1 construct: host or cells: human brain astrocytoma 1321N1 cells
Summary of the method: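 Antagonism measured as inhibition of calcium mobilisation induced by 250 pM AVP, with increasing compound concentrations, in 1321N1 astrocytoma cells stably expressing the receptor. pIC50 from 4-parameter logistic fit, converted to functional pKi using agonist concentration and agonist EC50.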

dysmenorrhoea = conditions: clinical study, compared to patients taking placebo; cited from earlier work

T1 sequence (P37288 whole entry): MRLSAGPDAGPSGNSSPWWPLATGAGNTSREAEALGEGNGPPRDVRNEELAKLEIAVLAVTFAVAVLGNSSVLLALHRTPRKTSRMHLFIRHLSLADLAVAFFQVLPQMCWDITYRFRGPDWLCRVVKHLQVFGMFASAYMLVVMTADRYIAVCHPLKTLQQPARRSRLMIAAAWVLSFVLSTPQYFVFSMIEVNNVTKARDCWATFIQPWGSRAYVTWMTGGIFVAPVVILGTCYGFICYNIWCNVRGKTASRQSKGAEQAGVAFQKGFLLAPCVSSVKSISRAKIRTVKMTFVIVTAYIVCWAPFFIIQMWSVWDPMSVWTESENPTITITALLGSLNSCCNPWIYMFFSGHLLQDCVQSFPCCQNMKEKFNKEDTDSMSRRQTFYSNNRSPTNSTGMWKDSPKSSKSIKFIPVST

Row | Compound | Ki [1] [nM] | further results
1 | O=C(C1CCN(c2ccccc2)CC1)N1Cc2cccn2Cc2ccccc21 [Example 149] | 0.589 | 
2 | O=C(C1CCN(c2ccccn2)CC1)N1Cc2cccn2Cc2cc(F)ccc21 [Example 150] | 1.91 | 
3 | O=C(C1CCN(c2ccccc2)CC1)N1Cc2cccn2Cc2cc(F)ccc21 [Example 151] | 0.794 | 
4 | Cc1ccc2c(c1)Cn1cccc1CN2C(=O)C1CCN(c2ccccn2)CC1 [Example 152] | 0.631 | 
5 | Cc1ccc2c(c1)Cn1cccc1CN2C(=O)C1CCN(c2ccccc2)CC1 [Example 153] | 0.234 | 
6 | O=C(C1CCN(c2ccccc2F)CC1)N1Cc2cccn2Cc2ccccc21 [Example 154] | 1.48 | 
7 | O=C(C1CCN(c2cccc(F)c2)CC1)N1Cc2cccn2Cc2ccccc21 [Example 155] | 4.57 | 
8 | O=C(C1CCN(c2ccc(F)cc2)CC1)N1Cc2cccn2Cc2ccccc21 [Example 156] | 1.45 | 
9 | O=C(C1CCN(c2ccccc2Cl)CC1)N1Cc2cccn2Cc2ccccc21 [Example 157] | 7.59 | 
10 | O=C(C1CCN(c2ccc(Cl)cc2)CC1)N1Cc2cccn2Cc2ccccc21 [Example 158] | 4.79 | 
11 | Cc1ccccc1N1CCC(C(=O)N2Cc3cccn3Cc3ccccc32)CC1 [Example 159] | 10.5 | 
12 | Cc1cccc(N2CCC(C(=O)N3Cc4cccn4Cc4ccccc43)CC2)c1 [Example 160] | 3.16 | 
13 | COc1ccc(S(=O)(=O)N2c3ccc(Cl)cc3[C@](O)(c3ccccc3Cl)[C@@H]2C(=O)N2CCC[C@H]2C(N)=O)cc1OC [SR49059] |  | amount of additional pain-killer taken (dysmenorrhoea): dose-related decrease in the amount of additional pain-killer taken; pain (dysmenorrhoea): dose-related decrease in pain
14 | (5H,11H-Benzo[e]pyrrolo[1,2-a][1,4]diazepin-10-yl)-[1-(2-nitro-phenyl)-piperidin-4-yl]-methanone [Example 172] |  | Mean fpKi (Human V1a) [1]: 7.35

More lines, main results first:

Row | Ki [1] [nM] | Compound | further results
15 | 1.12 | Cc1ccc(N2CCC(C(=O)N3Cc4cccn4Cc4ccccc43)CC2)cc1 [Example 161] | 
16 | 3.16 | COc1ccccc1N1CCC(C(=O)N2Cc3cccn3Cc3ccccc32)CC1 [Example 162] | 
17 | 5.62 | COc1cccc(N2CCC(C(=O)N3Cc4cccn4Cc4ccccc43)CC2)c1 [Example 163] | 
18 | 14.1 | COc1ccc(N2CCC(C(=O)N3Cc4cccn4Cc4ccccc43)CC2)cc1 [Example 164] | 
19 | 1.55 | CCc1ccc(N2CCC(C(=O)N3Cc4cccn4Cc4ccccc43)CC2)cc1 [Example 165] | 
20 | 3.89 | CCCc1ccc(N2CCC(C(=O)N3Cc4cccn4Cc4ccccc43)CC2)cc1 [Example 166] | 
21 | 3.63 | CC(C)c1ccc(N2CCC(C(=O)N3Cc4cccn4Cc4ccccc43)CC2)cc1 [Example 167] | 
22 | 151 | O=C(C1CCN(c2cccc(-c3ccccc3)c2)CC1)N1Cc2cccn2Cc2ccccc21 [Example 168] | 
23 | 30.9 | O=C(C1CCN(c2ccc(C(F)(F)F)cc2)CC1)N1Cc2cccn2Cc2ccccc21 [Example 169] | 
24 | 25.7 | N#Cc1cccc(N2CCC(C(=O)N3Cc4cccn4Cc4ccccc43)CC2)c1 [Example 170] | 
25 | 214 | N#Cc1ccc(N2CCC(C(=O)N3Cc4cccn4Cc4ccccc43)CC2)cc1 [Example 171] | 
26 | 17 | O=C(C1CCN(c2cccc([N+](=O)[O-])c2)CC1)N1Cc2cccn2Cc2ccccc21 [Example 173] | 
27 | 162 | O=C(C1CCN(c2ccc([N+](=O)[O-])cc2)CC1)N1Cc2cccn2Cc2ccccc21 [Example 174] | 
28 | 3.98 | Nc1ccccc1N1CCC(C(=O)N2Cc3cccn3Cc3ccccc32)CC1 [Example 175, [1-(2-Amino-phenyl)-piperidin-4-yl]-(5H,11H-benzo[e]pyrrolo[1,2-a][1,4]diazepin-10-yl)-methanone] | 
29 | 2.51 | Nc1ccc(N2CCC(C(=O)N3Cc4cccn4Cc4ccccc43)CC2)cc1 [Example 176] | 
30 | 28.8 | NCc1ccccc1N1CCC(C(=O)N2Cc3cccn3Cc3ccccc32)CC1 [Example 177, [1-(2-Aminomethyl-phenyl)-piperidin-4-yl]-(5H,11H-benzo[e]pyrrolo[1,2-a][1,4]diazepin-10-yl)-methanone] | 
31 | 97.7 | NCc1ccc(N2CCC(C(=O)N3Cc4cccn4Cc4ccccc43)CC2)cc1 [Example 178] | 
